Converted amounts (≈) assume the structure as drawn. Where two headings read alike, the source gives them in different places.
Key:
[1] = test system: Human Myeloma, Human Lymphoma, Solid Human tumor and Jeko-1 tumor cell lines; assay: CellTiter-Glo in vitro cell proliferation assay, Example 8, whole panel; type: cell-based; settings: cell lines of Table 16
Description: In this Example, in vitro cell proliferation assays were performed using: (1) Human Myeloma tumor cell lines; (2) Human Lymphoma tumor cell lines; (3) Solid Human tumor cell lines; and (4) Parental, Lenalidomide resistant and Bortezomib resistant Jeko-1 Mantle cell Lymphoma tumor cell lines. The compounds tested were three diharmaline compounds, namely the 518B562 (or simply 562), 560, and 561 compounds. In addition, a monoharmaline product designated as 518F014 was also tested. This monoharmaline product had the following structure:
Each proliferation assay was carried out as follows. The test cells were plated in growth media using a 384-well microtiter plate at 50 μL volume. The cells were incubated for 24 hours at 37° C. in a humidified incubator. After 24 hours of incubation, the test compounds were added to the test wells in DSMO solvent, at concentrations ranging from 0.0075-100 μM. Control wells received equal volumes of DSMO, without compound. Following drugging, the cells were incubated for 72 hours at 37° C. in a humidified incubator. After this exposure, 100 μL of a 1:1 mixture of sterile water and CellTiter-Glo® reagent (Promega) was added to each well. The plates were then incubated for 60 minutes at room temperature, followed by recording the luminescence value of each well using a luminometer as a measure of cell proliferation.

A498 cells = assay: CellTiter-Glo in vitro cell proliferation assay, Example 8; type: cell-based, Human; settings: Homo sapiens, Example 24, A498, RCC
Procedure, shortened: (§1)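 After seeding, cells rested 24 h at 37 °C. They then received compound (0.0075–100 μM) in DMSO and were cultured a further 72 h, after which CellTiter-Glo reagent was added and luminescence recorded 60 min later at room temperature.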

KMS-11 cells = assay: as above; type: cell-based, Human; settings: Example 24, KMS-11, human myeloma
Procedure, shortened: as §1

HCC70 cells = assay: as above; type: cell-based, Human; settings: Homo sapiens, Example 24, HCC70, Triple Negative Breast
Procedure, shortened: as §1

MOLP-8 cells = assay: as above; type: cell-based, Human; settings: Example 24, MOLP-8, human myeloma
Procedure, shortened: as §1

KMM-1 cells = assay: as above; type: cell-based, Human; settings: Example 24, KMM-1, human myeloma
Procedure, shortened: as §1

MDA-MB-468 cells = assay: as above; type: cell-based, Human; settings: Homo sapiens, Example 24, MDA-MB-468, Triple Negative Breast
Procedure, shortened: as §1

MM.1s cells = assay: as above; type: cell-based, Human; settings: MM1.S, Example 24, MM.1S, human myeloma
Procedure, shortened: as §1

ASPC-1 cells = assay: as above; type: cell-based, Human; settings: Homo sapiens, ASPC1, Example 24, ASPC-1, Pancreatic
Procedure, shortened: as §1

JIM1 cells = assay: as above; type: cell-based, Human; settings: Example 24, JIM1, human myeloma
Procedure, shortened: as §1

OCI-LY3 cells = assay: as above; type: cell-based, Human; settings: Homo sapiens, Example 24, OCI-LY3, Diffuse Large B-Cell Lymphoma
Procedure, shortened: as §1

KMS-27 cells = assay: as above; type: cell-based, Human; settings: Example 24, KMS-27, human myeloma
Procedure, shortened: as §1

SiHA cells = assay: as above; type: cell-based, Human; settings: Homo sapiens, Example 24, Squamous
Procedure, shortened: as §1

H1650 (EGFR mut) cells = assay: as above; type: cell-based, Human; settings: Homo sapiens, NCI-H1650, Example 24, Non Small Cell Lung
Procedure, shortened: as §1

MDA-MB-231 cells = assay: as above; type: cell-based, Human; settings: Homo sapiens, Example 24, MDA-MB-231, Triple Negative Breast
Procedure, shortened: as §1

A2780 cells = assay: as above; type: cell-based, Human; settings: Homo sapiens, Example 24, A2780, Ovarian
Procedure, shortened: as §1

KHM-1B cells = assay: as above; type: cell-based, Human; settings: Example 24, human myeloma
Procedure, shortened: as §1

L363 cells = assay: as above; type: cell-based, Human; settings: L-363, Example 24, L363, human myeloma
Procedure, shortened: as §1

A2780CP cells = assay: as above; type: cell-based, Human; settings: Homo sapiens, A2780C/P, Example 24, Ovarian
Procedure, shortened: as §1

DOHH-2 cells = assay: as above; type: cell-based, Human; settings: Homo sapiens, Example 24, DOHH-2, Diffuse Large B-Cell Lymphoma
Procedure, shortened: as §1

BxPC-3 cells = assay: as above; type: cell-based, Human; settings: Homo sapiens, Example 24, BxPC-3, Pancreatic
Procedure, shortened: as §1

FaDu cells = assay: as above; type: cell-based, Human; settings: Homo sapiens, Example 24, Squamous
Procedure, shortened: as §1

H929 cells = assay: as above; type: cell-based, Human; settings: NCI-H929, Example 24, H929, human myeloma
Procedure, shortened: as §1

HEC-1a cells = assay: as above; type: cell-based, Human; settings: Homo sapiens, Example 24, Endometrial
Procedure, shortened: as §1

KMS-34 cells = assay: as above; type: cell-based, Human; settings: Example 24, KMS-34, human myeloma
Procedure, shortened: as §1

COc1ccc2c3c([nH]c2c1)C(CC(CC1=NCCc2c1[nH]c1cc(OC)ccc21)c1cccc(Oc2ccccc2)c1)=NCC3 [compound 594, diharmaline 3-phenoxybenzaldehyde]
effectiveness in cell proliferation assays [1]: effective against a wide variety of cancer cells | IC50 (A498 cells; read-out: Mean): 4.69 µg/mL (≈ 7.7 µM) | IC50 (A498 cells; read-out: Trial A): 4.82 µg/mL (≈ 7.91 µM) | IC50 (A498 cells; read-out: Trial B): 4.56 µg/mL (≈ 7.49 µM) | IC50 (KMS-11 cells; read-out: Mean): 6.04 µg/mL (≈ 9.92 µM) | IC50 (KMS-11 cells; read-out: Trial A): 6.43 µg/mL (≈ 10.6 µM) | IC50 (KMS-11 cells; read-out: Trial B): 5.64 µg/mL (≈ 9.27 µM) | IC50 (HCC70 cells; read-out: Mean): 6.87 µg/mL (≈ 11.3 µM) | IC50 (HCC70 cells; read-out: Trial A): 6.15 µg/mL (≈ 10.1 µM) | IC50 (HCC70 cells; read-out: Trial B): 7.59 µg/mL (≈ 12.5 µM) | IC50 (MOLP-8 cells; read-out: Mean): 2.72 µg/mL (≈ 4.47 µM) | IC50 (MOLP-8 cells; read-out: Trial A): 2.73 µg/mL (≈ 4.49 µM) | IC50 (MOLP-8 cells; read-out: Trial B): 2.7 µg/mL (≈ 4.44 µM) | IC50 (KMM-1 cells; read-out: Mean): 2.57 µg/mL (≈ 4.22 µM) | IC50 (KMM-1 cells; read-out: Trial A): 2.53 µg/mL (≈ 4.15 µM) | IC50 (KMM-1 cells; read-out: Trial B): 2.61 µg/mL (≈ 4.28 µM) | IC50 (MDA-MB-468 cells; read-out: Mean): 2.79 µg/mL (≈ 4.58 µM) | IC50 (MDA-MB-468 cells; read-out: Trial A): 2.9 µg/mL (≈ 4.76 µM) | IC50 (MDA-MB-468 cells; read-out: Trial B): 2.68 µg/mL (≈ 4.41 µM) | IC50 (MM.1s cells; read-out: Mean): 2.57 µg/mL (≈ 4.22 µM) | IC50 (MM.1s cells; read-out: Trial A): 2.48 µg/mL (≈ 4.08 µM) | IC50 (MM.1s cells; read-out: Trial B): 2.66 µg/mL (≈ 4.36 µM) | IC50 (ASPC-1 cells; read-out: Mean): 3.47 µg/mL (≈ 5.7 µM) | IC50 (ASPC-1 cells; read-out: Trial A): 2.94 µg/mL (≈ 4.83 µM) | IC50 (ASPC-1 cells; read-out: Trial B): 3.99 µg/mL (≈ 6.56 µM) | IC50 (JIM1 cells; read-out: Mean): 7.67 µg/mL (≈ 12.6 µM) | IC50 (JIM1 cells; read-out: Trial A): 7.41 µg/mL (≈ 12.2 µM) | IC50 (JIM1 cells; read-out: Trial B): 7.92 µg/mL (≈ 13 µM) | IC50 (OCI-LY3 cells; read-out: Mean): 5.7 µg/mL (≈ 9.37 µM) | IC50 (OCI-LY3 cells; read-out: Trial A): 3.87 µg/mL (≈ 6.35 µM) | IC50 (OCI-LY3 cells; read-out: Trial B): 7.54 µg/mL (≈ 12.4 µM) | IC50 (KMS-27 cells; read-out: Mean): 4.14 µg/mL (≈ 6.79 µM) | IC50 (KMS-27 cells; read-out: Trial A): 5.54 µg/mL (≈ 9.1 µM) | IC50 (KMS-27 cells; read-out: Trial B): 2.73 µg/mL (≈ 4.49 µM) | IC50 (SiHA cells; read-out: Mean): 8.73 µg/mL (≈ 14.3 µM) | IC50 (SiHA cells; read-out: Trial A): 8.56 µg/mL (≈ 14.1 µM) | IC50 (SiHA cells; read-out: Trial B): 8.89 µg/mL (≈ 14.6 µM) | IC50 (H1650 (EGFR mut) cells; read-out: Mean): 2.58 µg/mL (≈ 4.23 µM) | IC50 (H1650 (EGFR mut) cells; read-out: Trial A): 2.61 µg/mL (≈ 4.28 µM) | IC50 (H1650 (EGFR mut) cells; read-out: Trial B): 2.55 µg/mL (≈ 4.19 µM) | IC50 (MDA-MB-231 cells; read-out: Mean): 3.09 µg/mL (≈ 5.08 µM) | IC50 (MDA-MB-231 cells; read-out: Trial A): 3.1 µg/mL (≈ 5.09 µM) | IC50 (MDA-MB-231 cells; read-out: Trial B): 3.08 µg/mL (≈ 5.07 µM) | IC50 (A2780 cells; read-out: Mean): 2.58 µg/mL (≈ 4.23 µM) | IC50 (A2780 cells; read-out: Trial A): 2.67 µg/mL (≈ 4.38 µM) | IC50 (A2780 cells; read-out: Trial B): 2.49 µg/mL (≈ 4.09 µM) | IC50 (KHM-1B cells; read-out: Mean): 6.65 µg/mL (≈ 10.9 µM) | IC50 (KHM-1B cells; read-out: Trial A): 6.48 µg/mL (≈ 10.6 µM) | IC50 (KHM-1B cells; read-out: Trial B): 6.81 µg/mL (≈ 11.2 µM) | IC50 (L363 cells; read-out: Mean): 3.64 µg/mL (≈ 5.98 µM) | IC50 (L363 cells; read-out: Trial A): 3.67 µg/mL (≈ 6.03 µM) | IC50 (L363 cells; read-out: Trial B): 3.6 µg/mL (≈ 5.92 µM) | IC50 (A2780CP cells; read-out: Mean): 3.27 µg/mL (≈ 5.37 µM) | IC50 (A2780CP cells; read-out: Trial A): 3.57 µg/mL (≈ 5.86 µM) | IC50 (A2780CP cells; read-out: Trial B): 2.96 µg/mL (≈ 4.87 µM) | IC50 (DOHH-2 cells; read-out: Mean): 2.64 µg/mL (≈ 4.34 µM) | IC50 (DOHH-2 cells; read-out: Trial A): 2.58 µg/mL (≈ 4.23 µM) | IC50 (DOHH-2 cells; read-out: Trial B): 2.71 µg/mL (≈ 4.45 µM) | IC50 (BxPC-3 cells; read-out: Mean): 3.39 µg/mL (≈ 5.56 µM) | IC50 (BxPC-3 cells; read-out: Trial A): 3.45 µg/mL (≈ 5.66 µM) | IC50 (BxPC-3 cells; read-out: Trial B): 3.33 µg/mL (≈ 5.46 µM) | IC50 (FaDu cells; read-out: Mean): 4.62 µg/mL (≈ 7.59 µM) | IC50 (FaDu cells; read-out: Trial A): 3.78 µg/mL (≈ 6.21 µM) | IC50 (FaDu cells; read-out: Trial B): 5.45 µg/mL (≈ 8.96 µM) | IC50 (H929 cells; read-out: Mean): 5.96 µg/mL (≈ 9.79 µM) | IC50 (H929 cells; read-out: Trial A): 6.5 µg/mL (≈ 10.7 µM) | IC50 (H929 cells; read-out: Trial B): 5.42 µg/mL (≈ 8.9 µM) | IC50 (HEC-1a cells; read-out: Mean): 3.29 µg/mL (≈ 5.4 µM) | IC50 (HEC-1a cells; read-out: Trial A): 3.15 µg/mL (≈ 5.17 µM) | IC50 (HEC-1a cells; read-out: Trial B): 3.42 µg/mL (≈ 5.63 µM) | IC50 (KMS-34 cells; read-out: Mean): 3.89 µg/mL (≈ 6.39 µM) | IC50 (KMS-34 cells; read-out: Trial A): 4.23 µg/mL (≈ 6.94 µM) | IC50 (KMS-34 cells; read-out: Trial B): 3.55 µg/mL (≈ 5.83 µM)
